Results reported in patent US10975056B2 (GlaxoSmithKline Intellectual Property Development Limited, priority 2016, dated 2021).
Counter-ions that a name gives are not always drawn. Like-named read-outs stand apart in the source and are kept apart here.

Legend:
[1] = test system: erythroid progenitor cells (EPCs); assay: Fetal hemoglobin (HbF) ELISA in day 7 erythroid progenitor cells; format: cell-based, human; settings: Homo sapiens, Erythroid progenitor cell;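 as to EPC ELISA (pEC50 category): for fetal hemoglobin induction normalized to vehicle-treated cells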
How it was run: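 CD34+-derived EPCs, 1,000 cells/well, rhEPO 3 U/mL; Compound A 22-pt series, […]; 5 d, 37° C, 5% CO2. Freeze-thaw lysis, anti-HbF capture + HRP anti-HbF, TMB, OD450. Normalized to DMSO wells.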

[2] = target: DNMT1 (Homo sapiens, UniProt P26358); assay: DNMT1 biochemical activity, breaklight assay and/or SPA assay; settings: for IC50 / DNMT1 BioChemical (pIC50 category): binned activity in either the breaklight or the SPA assay
[3] = read-out: DNMT1 BioChemical (pIC50 category) (converted)
[4] = HbF ELISA, day 7 EPCs, 5 days, read-out: EPC ELISA (pEC50 category) (converted)

Sequence of DNMT1 (P26358 whole entry, looked up): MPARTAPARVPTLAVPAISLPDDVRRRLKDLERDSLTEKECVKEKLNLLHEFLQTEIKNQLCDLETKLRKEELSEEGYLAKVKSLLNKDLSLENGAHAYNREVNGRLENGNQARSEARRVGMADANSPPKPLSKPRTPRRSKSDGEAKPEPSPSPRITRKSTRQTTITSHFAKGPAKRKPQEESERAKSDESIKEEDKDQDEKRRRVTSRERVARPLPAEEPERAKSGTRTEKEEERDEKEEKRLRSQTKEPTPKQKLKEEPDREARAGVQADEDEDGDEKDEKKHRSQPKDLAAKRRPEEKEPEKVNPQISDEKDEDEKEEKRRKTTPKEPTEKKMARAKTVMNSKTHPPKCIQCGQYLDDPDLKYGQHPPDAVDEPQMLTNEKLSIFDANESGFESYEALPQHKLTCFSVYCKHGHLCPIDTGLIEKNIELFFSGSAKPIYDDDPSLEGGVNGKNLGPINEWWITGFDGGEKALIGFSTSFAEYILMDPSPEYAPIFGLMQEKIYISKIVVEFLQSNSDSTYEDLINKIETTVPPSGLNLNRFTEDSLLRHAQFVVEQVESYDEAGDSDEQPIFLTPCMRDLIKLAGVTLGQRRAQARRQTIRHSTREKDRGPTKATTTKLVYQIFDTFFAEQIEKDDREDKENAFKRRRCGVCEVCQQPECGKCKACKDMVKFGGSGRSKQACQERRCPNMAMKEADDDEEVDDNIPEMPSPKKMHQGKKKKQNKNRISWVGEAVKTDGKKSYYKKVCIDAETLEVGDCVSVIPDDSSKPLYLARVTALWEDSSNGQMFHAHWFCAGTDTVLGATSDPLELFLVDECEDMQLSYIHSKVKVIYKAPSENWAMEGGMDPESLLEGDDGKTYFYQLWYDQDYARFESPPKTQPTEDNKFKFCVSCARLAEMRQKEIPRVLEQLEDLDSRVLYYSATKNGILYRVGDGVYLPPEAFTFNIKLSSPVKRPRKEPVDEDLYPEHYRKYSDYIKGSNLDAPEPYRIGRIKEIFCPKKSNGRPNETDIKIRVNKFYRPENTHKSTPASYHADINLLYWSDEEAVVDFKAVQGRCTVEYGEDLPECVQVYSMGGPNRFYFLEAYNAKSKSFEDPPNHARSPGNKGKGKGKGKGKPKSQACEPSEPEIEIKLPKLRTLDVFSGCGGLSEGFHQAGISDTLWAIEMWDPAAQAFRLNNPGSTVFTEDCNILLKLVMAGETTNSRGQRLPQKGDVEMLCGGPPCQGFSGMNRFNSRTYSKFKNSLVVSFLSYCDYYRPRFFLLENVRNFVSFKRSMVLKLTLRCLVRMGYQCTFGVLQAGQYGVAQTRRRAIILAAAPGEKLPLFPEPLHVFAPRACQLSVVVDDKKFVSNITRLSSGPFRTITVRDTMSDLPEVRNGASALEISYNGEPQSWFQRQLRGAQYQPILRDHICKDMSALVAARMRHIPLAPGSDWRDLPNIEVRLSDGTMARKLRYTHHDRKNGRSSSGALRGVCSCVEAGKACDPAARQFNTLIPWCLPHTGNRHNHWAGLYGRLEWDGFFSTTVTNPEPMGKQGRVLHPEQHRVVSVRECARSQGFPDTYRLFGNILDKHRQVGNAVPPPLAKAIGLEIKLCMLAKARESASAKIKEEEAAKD

| Structure (SMILES) | IC50 [2, 3] [nM] | EC50 [1, 4] [nM] | further results |
| --- | --- | --- | --- |
| CCc1c(C#N)c(SC(C(N)=O)c2ccccc2)nc(N(C)C)c1C#N (stereo not shown) [Compound A, 2-{[3,5-dicyano-6-(dimethylamino)-4-ethylpyridin-2-yl]sulfanyl}-2-phenylacetamide] | – | – | EC50 ([1]; day 7 EPCs, 5 days at 37° C, read-out: increase in HbF, average pEC50 (converted)): 316 nM |
| N#Cc1c(SC(C(N)=O)c2ccncc2)nc(N2CCOCC2)c(C#N)c1C1CC1 (stereo not shown) [Example 9, 2-((3,5-dicyano-4-cyclopropyl-6-morpholinopyridin-2-yl)thio)-2-(pyridin-4-yl)acetamide] | 316 to 1000 | > 31600 | – |
| CCc1c(C#N)c(SC(C(N)=O)c2ccccc2)nc(N2CCC23CCNCC3)c1C#N (stereo not shown) [Example 38, 2-((3,5-Dicyano-4-ethyl-6-(1,7-diazaspiro[3.5]nonan-1-yl)pyridin-2-yl)thio)-2-phenylacetamide trifluoroacetate] | – | – | IC50 ([2]; DNMT1 BioChemical (pIC50 category)): 316 to 1000 nM; EC50 ([1]; read-out: EPC ELISA (pEC50 category) (converted)): 316 to 1000 nM |
| CCc1c(C#N)c(N[C@@H](C(N)=O)c2ccccc2)nc(N2CCCNCC2)c1C#N [Example 41, (R)-2-((3,5-dicyano-6-(1,4-diazepan-1-yl)-4-ethylpyridin-2-yl)amino)-2-phenylacetamide] | 316 to 1000 | 1000 to 31600 | – |
| CC(Sc1nc(N2CCCNCC2)c(C#N)c(C2CC2)c1C#N)C(N)=O (stereo not shown) [Example 46, 2-((3,5-dicyano-4-cyclopropyl-6-(1,4-diazepan-1-yl)pyridin-2-yl)thio)propanamide] | 316 to 1000 | > 31600 | – |
| N#Cc1c(SC(C(N)=O)c2ccccc2)nc(N2CCOC(CO)C2)c(C#N)c1C1CC1 (stereo not shown) [Example 63, 2-((3,5-Dicyano-4-cyclopropyl-6-(2-(hydroxymethyl)morpholino)pyridin-2-yl)thio)-2-phenylacetamide] | 316 to 1000 | 316 to 1000 | – |
| CN1CCN(CC2CCN(c3nc(SC(C(N)=O)c4ccccc4)c(C#N)c(C4CC4)c3C#N)CC2)CC1 (stereo not shown) [Example 125, 2-((3,5-Dicyano-4-cyclopropyl-6-(4-((4-methylpiperazin-1-yl)methyl)piperidin-1-yl)pyridin-2-yl)thio-2-phenylacetamide trifluoroacetate] | – | < 316 | DNMT1 BioChemical (pIC50 category) [2]: D (Category D: ≥6.5); average pIC50 against DNMT1 ([2]; breaklight assay and/or SPA assay, repeated experimental runs): > 6.5 |

Second part, led by results:

| IC50 [2, 3] [nM] | EC50 [1, 4] [nM] | Structure (SMILES) | further results |
| --- | --- | --- | --- |
| 316 to 1000 | 1000 to 31600 | CCc1c(C#N)c(SC(C(N)=O)c2ccccc2)nc(N2CCNC(=O)CC2)c1C#N (stereo not shown) [Example 8, 2-{[3,5-dicyano-4-ethyl-6-(5-oxo-1,4-diazepan-1-yl)pyridin-2-yl]sulfanyl}-2-phenylacetamide] | – |
| 316 to 1000 | 1000 to 31600 | CCc1c(C#N)c(SC(C(N)=O)c2ccccc2)nc(N2CCN(CC)CC2)c1C#N (stereo not shown) [Example 35, 2-((3,5-dicyano-4-ethyl-6-(4-ethylpiperazin-1-yl)pyridin-2-yl)thio)-2-phenylacetamide] | – |
| – | < 316 | CN1CCN(C2CCN(c3nc(SC(C(N)=O)c4ccccc4)c(C#N)c(C4CC4)c3C#N)CC2)CC1 (stereo not shown) [Example 40, 2-((3,5-Dicyano-4-cyclopropyl-6-(4-(4-methylpiperazin-1-yl)piperidin-1-yl)pyridin-2-yl)thio)-2-phenylacetamide] | DNMT1 BioChemical (pIC50 category) [2]: D (Category D: ≥6.5) |
| 316 to 1000 | 1000 to 31600 | CCc1c(C#N)c(SC(C(N)=O)c2ccccc2)nc(N2CCC(O)CC2)c1C#N (stereo not shown) [Example 48, 2-((3,5-Dicyano-4-ethyl-6-(4-hydroxypiperidin-1-yl)pyridin-2-yl)thio)-2-phenylacetamide] | – |
| 316 to 1000 | < 316 | CCc1c(C#N)c(SC(C(N)=O)c2ccccc2)nc(N2CCNCC2)c1C#N (stereo not shown) [Example 55, 2-((3,5-Dicyano-4-ethyl-6-(piperazin-1-yl)pyridin-2-yl)thio)-2-phenylacetamide] | – |
| – | < 316 | CCc1c(C#N)c(SC(C(N)=O)c2ccccc2)nc(N2CCCN(C)CC2)c1C#N (stereo not shown) [Example 56, 2-((3,5-Dicyano-4-ethyl-6-(4-methyl-1,4-diazepan-1-yl)pyridin-2-yl)thio)-2-phenylacetamide] | DNMT1 BioChemical (pIC50 category) [2]: D (Category D: ≥6.5) |
| 316 to 1000 | 316 to 1000 | CCc1c(C#N)c(SC(C(N)=O)c2ccccc2)nc(N2CCOCC2)c1C#N (stereo not shown) [Example 57, 2-((3,5-Dicyano-4-ethyl-6-morpholinopyridin-2-yl)thio)-2-phenylacetamide] | – |
